The results in this text go back to patent US20260200965A1, “NOVEL COMPOUND DERIVED FROM LORANTHUS TANAKAE AND ANTICANCER USE THEREOF” (KOREA INSTITUTE OF ORIENTAL MEDICINE, priority 2022, published 2026).

SMILES strings stand for the structures. Where “and” joins values, the source holds several entries; their conditions need not be identical. Equal values may be shown once.

In series [1] the test system is mouse skin epithelial cell JB6. Briefly: EGF-induced cell transformation colony growth inhibition (soft agar). It is filed as cell-based. The conditions noted are these: EGF 10 ng/ml, JB6 colonies, about 2 weeks. The method, then: (§1) The carcinogenicity inhibitory effect of the extract of Loranthus tanakae Franch. & Sav was determined in a carcinogenic model in which the mouse skin epithelial cell JB6 (ATCC, USA) was treated with EGF, which is a growth factor that increases cancer cell occurrence, and TPA, which is a tumor-promoting factor, to induce malignant transformation.
(§2) Specifically, agar mix (0.5%) including BME, FBS, glutamine, gentamicin, PBS and 1.25% agar, EGF (10 ng/ml) or TPA (10 ng/ml) and the 70% ethanol extract of Loranthus tanakae Franch. & Sav prepared in Example 1-1 were mixed, dispensed into 6-well plates at 3 mL per well, and solidified (bottom agar). Mouse skin epithelial cells JB6 (ATCC, USA) were detached by trypsin treatment, washed with 1×PBS, and resuspended in 10% BME to determine the cell number. 8,000 cells were prepared per well, and agar mix (0.3%), EGF or TPA and the 70% ethanol extract of Loranthus tanakae Franch. & Sav prepared in Example 1-1 were mixed, dispensed into 1 mL per well, and solidified (upper agar). After culturing in a CO2 incubator for about 2 weeks, colonies were photographed under a microscope, and the number of colonies was counted by using Image-Pro Plus software (v.6.0) program (Media Cybernetics, Silver Spring, MD, USA).

Series [2] deals with mouse skin epithelial cell JB6. Kind of series: TPA-induced cell transformation colony growth inhibition (soft agar). It counts as cell-based. The conditions noted are these: TPA 10 ng/ml, JB6 colonies, about 2 weeks. On the procedure:
as §1, §2

Series [3] concerns NHDF (normal human dermal fibroblast) cells. Briefly: Toxicity test in normal cells (WST-8). It is filed as cell-based. The method, then: NHDF (normal human dermal fibroblast; ATCC, USA) cells were seeded at about 5,000 cells per well in a 96-well plate and stabilized for 24 hours, and then treated with Lotanoside B isolated in Example 2 at various concentrations (0, 6.25, 12.5, 25, or 50 μM). As a control group, 5-FU (anticancer drug) and kaempferol were treated at various concentrations (5-FU: 0, 1.25, 2.5, 5 or 10 μM; kaempferol: 0, 5, 10, 20 or 40 μM). After culturing in a CO2 incubator for 48 hours, WST-8 ((2-(2-methoxy-4-nitrophenyl)-3-(4-nitrophenyl)-5-(2,4-disulfophenyl)-2H-tetrazolium, monosodium salt) reagent was treated, and after culturing for 2 hours, the optical density (OD) was measured at a wavelength of 450 nm by using a microplate reader.
A general note: Tetrazolium dyes change colour on reduction, which living cells bring about.

Series [4] concerns SKMEL-5 melanoma cancer cells. Briefly: Cancer cell growth inhibition (WST-8 assay). It is filed as cell-based. On the procedure: SKMEL-5 melanoma cancer cells (ATCC, USA) were dispensed into a 96-well plate at 1,000 cells per well and stabilized for 24 hours, and then treated with Lotanoside B at different concentrations (0, 6.25, 12.5, 25 or 50 μM). As a control group, 5-FU (anticancer drug) and kaempferol were treated at different concentrations, respectively (5-FU: 0, 1.25, 2.5, 5 or 10 μM; kaempferol: 0, 5, 10, 20 or 40 μM). Afterwards, the cells were cultured in a CO2 incubator for 72 hours, and then treated with WST-8 ((2-(2-methoxy-4-nitrophenyl)-3-(4-nitrophenyl)-5-(2,4-disulfophenyl)-2H-tetrazolium, monosodium salt) reagent, and after culturing for about 2 hours, the optical density (OD) was measured at a wavelength of 450 nm by using a microplate reader.

For series [5], the system named is DMBA/TPA-induced skin cancer. It counts as in vivo, ICR mice. On the procedure:
Female ICR mice (5 weeks old, 20~25 g) were purchased as experimental animals from Samtaco Co., Ltd. (Osan, Korea), and were provided with water and food freely in a cage equipped with a constant temperature and humidity device. After a one-week adaptation period, the hair on the back of the mice was removed, and they were divided into six groups as shown in Table 1 and raised for 20 weeks.
When DMBA (7,12-Dimethylbenz[a]anthracene), which induces carcinogenesis, is treated to the depilated area and TPA (12-Otetradecanoylphorbol-13-acetate, promoter) is continuously applied, skin inflammation and skin cancer are induced. […] TPA, Lotanoside B and 5-FU were diluted in acetone and topically treated to the back area twice a week, and the number and size of the tumors formed and the weight of the mice were measured.

Setting [6] is: 0.1 and 1 μmole topical twice a week, 20 weeks, vs DMBA/TPA group, reduction greater at 1 μmole.

As to `COc1cc(O)c2c(=O)c(OC3OC(CO)C(O)C(O)C3O)c(-c3ccc(O)c(O)c3)oc2c1` (stereo not drawn) [rhamnetin-3-O-glucoside], in series [1] (test concentration not given), the “inhibition rate compared to the EGF treatment group” value turned out to be 92.9%. The “inhibition rate compared to the TPA treatment group” value in series [2] (test concentration not given) is 76.2% and 74.2%.
Regarding `O=c1[nH]cc(F)c(=O)[nH]1` [5-FU, fluorouracil], the “concentration at which toxicity begins to show” value (“concentration” below) in series [3] (human, 48 h) is 10 µM.
The inhibition is how much of the control response was suppressed. Broadly, the IC50 is the concentration that inhibits the measured activity by half. With `COc1cc(O)c2c(=O)c(OC3OC(C)C(O)C(O)C3O)c(-c3ccc(OC4OC(COC(=O)/C=C/c5ccccc5)C(O)C(O)C4O)c(O)c3)oc2c1` (stereo not drawn) [Lotanoside B, rhamnetin-3-O-rhamnoside-4′-O-(6″-O-cinnamoyl)-glucoside], the inhibition at 50 µM in series [1] (Mus musculus, Epithelial cell, 336 h, 50 μM, read-out: inhibition rate compared to the EGF treatment group) was 66.7%. The “inhibition rate compared to the TPA treatment group” value in series [2] (50 μM) is listed as 76.2%. For the same molecule, the inhibition at 50 µM in series [2] (Mus musculus, Epithelial cell, 336 h, 50 μM, read-out: inhibition rate compared to the TPA treatment group) stood at 74.2%. In series [3] (human, 48 h), the “concentration” value is more than 50 µM. The same molecule displayed an IC50 in series [4] (Homo sapiens, SK-MEL-5, SKMEL-5, 72 hours, WST-8) of 32.1 µM. Also, in series [4] (SKMEL-5, 72 hours, WST-8), the “cancer cell growth inhibition effect compared to kaempferol” value is “superior cancer cell growth inhibition effect compared to kaempferol”. The “cancer cell growth inhibition effect” value in series [4] (SKMEL-5, at a concentration that did not exhibit toxicity) was found to be 78.5%. In addition, in series [5] (setting [6]), the number of tumors entry is “decreased”, the tumor area result is reported as “decreased” and the tumor incidence result was “decreased”. The “effect in inhibiting skin cancer formation compared to 5-FU” value in series [5] (5-FU 0.1 μmole as positive control) is reported as “superior effect in inhibiting skin cancer formation compared to 5-FU”.
As to `O=c1c(O)c(-c2ccc(O)cc2)oc2cc(O)cc(O)c12` [kaempferol], the “concentration” value in series [3] (NHDF, 48 hours, WST-8) came to 40 µM.
